Results reported in publication PMC3954831, “Protection of Cardiomyocytes from the Hypoxia-Mediated Injury by a Peptide Targeting the Activator of G-Protein Signaling 8” (PLoS ONE, 2014).

Tests used:
[1] = test system: cardiomyocytes; experiment: MTT assay, viability of cardiomyocytes; assay type: cell-based, Wistar rat
Protocol: Cardiomyocytes in 24-well culture plates were incubated in PBS (pH 7.4) containing 0.5 mg/ml MTT at 37°C. After for 2 h incubation, the PBS was removed and 100 µl of dimethyl sulfoxide (DMSO) was added to each well to solubilize dark blue formazan products. Absorbance of the colored solution was determined at 595 nm.
Here, we first examined the influence of the AGS8-peptide and gallein on the viability of cells. Cardiomyocytes were incubated with gallein for 24 h, and their viability was determined by MTT assay.
Figure 7 Effect of AGS8-peptide or Gallein on the viability of cardiomyocytes determined by MTT assay. Neonatal cardiomyocytes were cultured for 24-peptide or Gallein. […] N = 5 from 5 independent experiments.

[2] = test system: connexin 43 (CX43) of cultured cardiomyocytes; settings: gallein 100 µM; ref [13]; cited from earlier work
From the text: Gallein is an inhibitor of Gβγ-mediated signaling that occupies a “common” interaction surface of Gβγ and inhibits the interaction of Gβγ-regulated proteins with Gβγ [25]. Thus, gallein is expected to block a wide range of Gβγ signals in cells, including CX43 regulation mediated by AGS-Gβγ. We previously demonst ...

O=C1OC2(c3ccccc31)c1ccc(O)c(O)c1Oc1c2ccc(O)c1O [gallein]
cytotoxicity / viability of cardiomyocytes ([1]; MTT assay, 1 µM, 24 h, N = 5 independent experiments): caused damage in the cardiomyocytes
cytotoxicity under normoxia ([1]; normoxia): produced deleterious effects
inhibition of hypoxia-induced internalization of CX43 [2]: completely inhibits hypoxia-induced internalization of CX43
